The record followed here is US20110105550A1 (SALIX PHARMACEUTICALS, LTD., priority 2008, published 2011).

SMILES strings stand for the structures.

What all share (format): physicochemical
Data set [1] in a line: Automated moisture sorption/desorption (moisture balance). The conditions noted are these: for wt gain from 5 to 95% RH: sorption 5 to 95% RH; for Post-moisture sorption/desorption XRPD form: sorption from 5% RH to 95% RH, desorption from 95% RH to 5% RH. Here is the method: Moisture sorption/desorption data were collected on a VTI SGA-100 Vapor Sorption Analyzer. Sorption and desorption data were collected over a range of 5% to 95% relative humidity (RH) at 10% RH intervals under a nitrogen purge. Samples were not dried prior to analysis. Equilibrium criteria used for analysis were less than 0.0100% weight change in 5 minutes, with a maximum equilibration time of 3 hours if the weight criterion was not met. Data were not corrected for the initial moisture content of the samples. NaCl and PVP were used as calibration standards.

Data set [2] is described as follows: Dynamic vapor sorption/desorption (DVS) of amorphous preparations. Here is the method:
Based on the data, relative humidity stressing studies of the two amorphous materials at 40° C./75% RH are recommended.

Data set [3] in a line: Vapor stressing / vapor diffusion of amorphous rifaximin. The conditions noted are these: for Form obtained in vapor diffusion experiment: water as antisolvent. As for the experimental part:
(§1) Vapor stressing experiments were done on amorphous material from two preparations: lyophilization from p-dioxane:water 1:1 and crash precipitation from ethyl acetate with heptane. […] The majority of the stressed samples appeared as clear red solutions after 6 days. Those solutions were placed in vials of antisolvent for vapor diffusion. Dry and wet milling experiments were conducted on amorphous materials from the two preparations mentioned above. Amorphous materials were recovered from the dry milling experiments.

The nature of data set [4]: Stressing under various relative humidities (RH), solid form by XRPD. An excerpt:
The jar was sealed and stored at either ambient temperature or in an oven at elevated temperature.

The nature of data set [5]: Milling experiments for amorphous materials. Particulars: 10 min. at 30 Hz, scraped sides, 10 min. at 30 Hz (dry milling). As for the experimental part:
as §1
A solid sample of rifaximin was charged to a milling container with a milling ball. Samples were milled for 5 or 15 minute intervals (2×5 minutes, 2×15 minutes, and 3×15 minutes) at 30 Hz using a Retsch MM200 mixer mill. Solids were scraped from the sides of the vial after each interval.

[6] abbreviates: first sample of Table 3 (by elimination: lyophilization in p-dioxane:water 1:1).
Setting [7] is: second sample of Table 3 (crash precipitation from ethyl acetate with heptane).

For `CO[C@H]1/C=C/O[C@@]2(C)Oc3c(C)c(O)c4c(O)c(c5c(nc6cc(C)ccn65)c4c3C2=O)NC(=O)/C(C)=C\C=C\[C@H](C)[C@H](O)[C@@H](C)[C@@H](O)[C@@H](C)[C@H](OC(C)=O)[C@@H]1C` [amorphous], the “wt loss from 95 to 5% RH” value in data set [1] (desorption 95 to 5% RH, listed as Rifaximin Amorphous) is 11.3% wt loss from 95 to 5% RH. Also, the “wt loss upon equilibration at 5% RH” value in data set [1] (equilibration at 5% RH, listed as Rifaximin Amorphous) is reported as 0.7% wt loss upon equilibration at 5% RH. In addition, the Hygroscopicity result in data set [1] (moisture balance) is “hygroscopic”. In addition, the figures for the “wt gain from 5 to 95% RH” value in data set [1] (listed as Amorphous rifaximin) and in data set [1] (listed as Rifaximin Amorphous) were 11.6% and 11.6% wt gain from 5 to 95% RH, respectively. Further, the “Post-moisture sorption/desorption XRPD form” value in data set [1] (listed as Amorphous), in data set [1] (listed as Amorphous rifaximin) and in data set [1] (listed as Rifaximin Amorphous) was “amorphous” in each case. Moreover, the “DVS weight gain from 5-95% RH” value in data set [2] (setting [6]) is recorded as 8.364% eight gain from 5-95% RH; in data set [2] (setting [7]) it was 7.843% weight gain from 5-95% RH. Also, the “DVS weight loss at 5% RH” value is 0.100% weight loss at 5% RH in data set [2] (setting [6]) and 1.606% weight loss at 5% RH in data set [2] (second sample of Table 3 (DSC endo 79/204: crash precipitation from ethyl acetate with heptane)). Further, the “DVS weight loss from 95-5% RH” value is recorded as 10.989% weight loss from 95-5% RH in data set [2] (setting [6]) and 9.172% weight loss from 95-5% RH in data set [2] (setting [7]). Besides, the “XRPD Result after stressing” value was “amorphous” in data set [3] (DCM, VD w/ IPE, 11 days); “amorphous” in data set [3] (MEK, VD w/ IPE, 11 days); “amorphous” in data set [3] (toluene, VS, RT, 6 days, listed as Rifaximin, Amorphous); “no peaks by XRPD” in data set [3] (toluene, VS, RT, 6 days, listed as amorphous material); “amorphous” in data set [3] (water, VS, RT, 15 days). Besides, the “Form obtained in vapor diffusion experiment” value in data set [3] (methanol) and in data set [3] (tetrahydrofuran) was “Form β” throughout. Moreover, the “Final Form (XRPD)” value is on record as “amorphous” in data set [4] (43% RH, 5 days); “amorphous” in data set [4] (43% RH, 5 days, listed as Amorphous); “remained amorphous” in data set [4] (43% RH, 5 days, listed as amorphous rifaximin); “amorphous” in data set [4] (58% RH, 5 days); “remained amorphous” in data set [4] (58% RH, 8 days); “remained amorphous” in data set [4] (75% RH, 2 days, listed as amorphous rifaximin). For the same compound, the “Final Form (XRPD)” value in data set [4] (75% RH, 5 days) is given as “amorphous”. Further, the “RH stability: solid form after exposure, 58% RH” value in data set [4] (58% RH, duration not printed in Table 1, am = amorphous) was “am”. Further, the “RH stability: solid form after exposure, 75% RH” value in data set [4] (75% RH, duration not printed in Table 1, am = amorphous) is given as “am”.
For `CO[C@H]1/C=C/O[C@@]2(C)Oc3c(C)c(O)c4c(O)c(c5c(nc6cc(C)ccn65)c4c3C2=O)NC(=O)/C(C)=C\C=C\[C@H](C)[C@H](O)[C@@H](C)[C@@H](O)[C@@H](C)[C@H](OC(C)=O)[C@@H]1C` [crash amorphous rifaximin], in data set [5], the “XRPD Result after milling” value is given as “amorphous”.
